How the values were obtained:
[1] = tested on: hypotension induced by PAF; test: Inhibition of the Hypotensive Effect Induced by PAF in Normotense Rats; assay type: in vivo, Male Sprage Dawley rats; details: Rattus norvegicus, iv, anesthetized, compound i.v. 3 min before PAF 0.5 mcg/Kg i.v., average arterial pressure, read-out: CI50 (inhibition of PAF-induced hypotension)
Protocol: Male Sprage Dawley rats, of 180-220 g of weight, anesthetized with sodium pentobarbital (50 mg/Kg, i.p. 1 mL/100 g) have been used. In order to measure the average arterial pressure, a polyethylene catheter is introduced into the carotid artery. The arterial pressure is recorded with the help of a transducer connected with a R611 Beckman polygraph. The tested compounds are administered through the femoral vein 3 min before the injection of PAF (0.5 mcg/Kg, i.v.).

[2] = tested on: platelet aggregation induced by PAF; test: Inhibition of Platelet Aggregation Induced by PAF (Born nephelometric technique, rabbit platelet rich plasma); assay type: cell-based, male New Zealand albino rabbits; details: PAF (C18) 16 nM final
Protocol: The blood is obtained by cardiac puncture of male New Zealand albino rabbits (between 2 and 2.5 Kg of weight) and coagulation is prevented by adding 1 part of 3.16% sodium citrate dihydrate in 9 parts of blood. The platelet rich plasma (PRP) is prepared by blood centrifugation at 250×g for 10 min. at 4° C. and it is diluted with platelet poor plasma (PPP) by additional centrifugation at 3000×g for 10 min. The amount of platelets is adjusted to 3×10^-5 /mm^3. the platelet aggregation induced by PAF (C18; prepared in our laboratory) (16 nM, final) is determined by the Born nephelometric technique (J. Physiol., 1962, 162, 67) using a aggregometer Chrono-log 500. The activities of the inhibitors are expressed as IC50, that is to say the concentration of the drug needed to inhibit the platelet aggregation by 50%.

[3] = Oryctolagus cuniculus, Platelet

Row | SMILES | IC50 [2, 3] | IC50 [2] | ED50 [1]
1 | CC[n+]1ccccc1CN(C(C)=O)C(=O)OCCOCCOC(=O)NCC1CCCCC1.[I-] [Compound 43, 2-(N-Acetyl-N-((2-(2-(cyclohexylmethylcarbamoyloxy)ethoxy)ethoxy)carbonyl)aminomethyl)-1-ethylpyridinium iodide] | 2000 nM | – | 0.5 mg/kg
2 | CCCCCCCCCCCCCCCCCNC(=O)OCCOCCOC(=O)N(Cc1cccc[n+]1CC)C(=O)OCC.[I-] [Compound 16, 2-(N-Ethoxycarbonyl-N-((2-(2-(heptadecylcarbamoyloxy)ethoxy)ethoxy)carbonyl)aminomethyl)-1-ethylpyridinium iodide] | 12 nM | – | 0.021 mg/kg
3 | CCCCCCCCCCCCCCCCCNC(=O)OCCSCCOC(=O)N(Cc1cccc[n+]1CC)C(C)=O.[I-] [Compound 62, 2-(N-Acetyl-N-((2-(2-(heptadecylcarbamoyloxy)ethylthio)ethoxy)carbonyl)aminomethyl)-1-ethylpyridinium iodide] | – | 4.4 nM | 0.013 mg/kg
4 | CCCCCCCCCCCCCCCNC(=O)OCCOCCOCCOC(=O)N(Cc1cccc[n+]1CC)C(C)=O.[I-] [Compound 46, 2-(N-Acetyl-N-((2-(2-(2-(pentadecylcarbamoyloxy)ethoxy)ethoxy)ethoxy)carbonyl)aminomethyl)-1-ethylpyridinium iodide] | 12 nM | – | 0.028 mg/kg
5 | CCCCCCCCCCCCCCCNC(=O)OCCOCCOC(=O)N(Cc1cccc[n+]1CCC)C(C)=O.[I-] [Compound 20, 2-(N-Acetyl-N-((2-(2-(pentadecylcarbamoyloxy)ethoxy)ethoxy)carbonyl)aminomethyl)-1-propylpyridinium iodide] | 220 nM | – | 0.68 mg/kg
6 | CCCCCCCCCCCCCCCNC(=O)OCCCCCOC(=O)N(Cc1cccc[n+]1CC)C(C)=O.[I-] [Compound 31, 2-(N-Acetyl-N-((5-(pentadecylcarbamoyloxy)pentoxy)carbonyl)aminomethyl)-1-ethylpyridinium iodide] | 32 nM | – | 0.057 mg/kg
7 | CC[n+]1ccccc1CN(C(C)=O)C(=O)OCCOCCOC(=O)NCCCc1ccccc1.[I-] [Compound 40, 2-(N-Acetyl-N-((2-(2-(3-phenylpropylcarbamoyloxy)ethoxy)ethoxy)carbonyl)aminomethyl)-1-ethylpyridinium iodide] | 1200 nM | – | 0.88 mg/kg
8 | CCCCCCCCCCCCCCCCCCOCCOCCOC(=O)N(Cc1cccc[n+]1CC)C(C)=O.[I-] [Compound 3, 2-(N-Acetyl-N-((2-(2-octadecyloxyethoxy)ethoxy)carbonyl)aminomethyl)-1-ethylpyridinium iodide] | 19 nM | – | 0.022 mg/kg
9 | CCCCCCCCCCCCCCCNC(=O)OCCSCCOC(=O)N(Cc1cccc[n+]1CC)C(C)=O.[I-] [Compound 37, 2-(N-Acetyl-N-((2-(2-(pentadecylcarbamoyloxy)ethylthio)ethoxy)carbonyl)aminomethyl)-1-ethylpyridinium iodide] | 6.8 nM | – | 0.044 mg/kg
10 | CCCCCCCCCCCCCCCCCCOCCSCCOC(=O)N(Cc1cccc[n+]1CC)C(C)=O [Compound 69, 2-(N-Acetyl-N-((2-(2-octadecyloxyethylthio)ethoxy)carbonyl)aminomethyl)-1-ethylpyridinium idodide] | 15 nM | – | 0.016 mg/kg

The next lines start with results.

Row | IC50 [2, 3] | IC50 [2] | SMILES | ED50 [1]
11 | – | 12 nM | CCCCCCCCCCCCCCCCCNC(=O)OCCSCCOC(=O)N(Cc1cccc[n+]1CC)C(C)=O.[Cl-] [Compound 63, 2-(N-Acetyl-N-((2-(2-(heptadecylcarbamoyloxy)ethylthio)ethoxy)carbonyl)aminomethyl)-1-ethylpyridinium chloride] | 0.018 mg/kg
12 | 1500 nM | – | CC[n+]1ccccc1CN(C(C)=O)C(=O)OCCOCCOC(=O)C(C)(C)C.[I-] [Compound 9, 2-(N-Acetyl-N-((2-(2-pivaloyloxyethoxy)ethoxy)carbonyl)aminomethyl)-1-ethylpyridinium iodide] | 5 mg/kg
13 | 4.4 nM | – | CCCCCCCCCCCCCCCCOCCSCCOC(=O)N(Cc1cccc[n+]1CC)C(C)=O.[I-] [Compound 66, 2-(N-Acetyl-N-((2-(2-hexadecyloxyethylthio)ethoxy)carbonyl)aminomethyl)-1-ethylpyridinium iodide] | 0.014 mg/kg
14 | 27 nM | – | CCCCCCCCCCCCCCCCCNC(=O)OCCOCCOC(=O)N(Cc1cccc[n+]1CC)C(C)=O [Compound 12, 2-(N-Acetyl-N-((2-(2-heptadecylcarbamoyloxy)ethoxy)ethoxy)carbonyl)aminomethyl)-1-ethylpyridium chloride] | 0.067 mg/kg
15 | 51 nM | – | CCCCCCCCCCCCCCCNC(=O)OCCOCCOC(=O)N(Cc1cccc[n+]1CC)C(=O)OCC(C)C.[Cl-] [Compound 25, 2-(N-Isobutyloxycarbonyl-N-((2-(2-(pentadecylcarbamoyloxy)ethoxy)ethoxy)carbonyl)aminomethyl)-1-ethylpyridinium chloride] | 0.064 mg/kg
16 | 1600 nM | – | CCCCCCCCCCCCCCCCCNC(=O)OCCOCCOC(=O)NCc1cccc[n+]1CC.[I-] [Compound 13, 2-(N-((2-(2-(Heptadecylcarbamoyloxy)ethoxy)ethoxy)carbonyl)aminomethyl)-1-ethylpyridinium iodide] | 0.5 mg/kg
17 | 19 nM | – | CCCCCCCCCCCCCCCNC(=O)OCCOCCOC(=O)N(Cc1cccc[n+]1CC)C(C)=O.[I-] [Compound 19, 2-(N-Acetyl-N-((2-(2-(pentadecylcarbamoyloxy)ethoxy)ethoxy)carbonyl)aminomethyl)-1-ethylpyridinium iodide] | 0.041 mg/kg
18 | 54 nM | – | CCCCCCCCCCCCCCCCCNC(=O)OCCOCCOC(=O)N(Cc1cccc[n+]1C)C(C)=O.[I-] [Compound 14, 2-(N-Acetyl-N-((2-(2-(heptadecylcarbamoyloxy)ethoxy)ethoxy)carbonyl)aminomethyl)-1-methylpyridinium iodide] | 0.13 mg/kg
19 | 27 nM | – | CCCCCCCCCCCCCCCNC(=O)OCCOCCOC(=O)N(Cc1cccc[n+]1CC)C(=O)OCC.[I-] [Compound 22, 2-(N-Ethoxycarbonyl-N-((2-(2-(pentadecylcarbamoyloxy)ethoxy)ethoxy)carbonyl)aminomethyl)-1-ethylpyridinium iodide] | 0.032 mg/kg
